The values below come from patent publication EP1373238B1, “ALKYLXANTHATES AND THEIR USE AS PESTICIDES” (priority 2001, dated 2002).

Assay type in all cases: in vivo
Test [1] deals with late third instar of Spodoptera litura. As to the kind of experiment: Antifeedant activity, painted leaf disks of Ricinus cummunis. Set-up: key to A.I (Anti-feedent index): percent protection of treated vs untreated leaf disks. To be noted: for Concentration required for 50% leaf protection EC50 ±S.E: oral feeding, leaf disk. How it is done: (§1) The average mortality and growth inhibition data of experiments was subjected to IBM AT 386 computer analysis at our laboratory for calculating LC50, LD50, EC50, ED50,etc., and other statistical data. The software used was developed by Reddy et al., 1992.
Methodology for Antifeedant activity: Tobacco caterpillar, Spodoptera litura F., larvae will be reared on Ricinus cummunis L. leaves at 27°C and 65-70% R.H. Known area (cm^2) of leaf disks were painted with exact amount of pure compound (dissolved in acetone) and were dried at room temperature till the carrier solvent evaporated. For each concentration 5 to 6 replicates were prepared and experiments were conducted individually. Control disks were dipped in carrier solvent (acetone) alone. Third instar larvae weighing 200-250 mg are selected from stock culture, starved for 4 hr, and will be used individually for the assay of antifeedant activity. After 12 and 24 hours, leaf area meter was used to measure the consumed area of treated and untreated leaves. Based on the data the percent protection of individual compound was calculated. All these properties were compared with well-known antifeedant isolated from neem kemal 'Azadiractin'. Control and test larvae arc transferred on fresh leaves and'monitored till adult emergence to study the growth and behavioral aspects of the insect.

Test [2] concerns Helicoverpa armigera (Hubner). As to the kind of experiment: Growth regulatory (IGR) activity, topical application.
In test [3] the test system is Brine shrimp, Artemia salina. As to the kind of experiment: Brine shrimp bioassay (toxic activity). As to conditions: read-out: LC50 ± S.E. As for the experimental part: Brine shrimp (Artemiasalina) eggs were hatched in a shallow rectangular dish filled with artificial seawater, which was prepared with commercial salt mixture and double distilled water. A plastic divider with several 2-mm holes was clamped in the dish to make two unequal compartments. The eggs were sprinkled into the larger compartment that was darkened, while the smaller compartment was illuminated. After 48 hours the phototropic nauplii were collected by pipette from the lighted side, being separated by the divider from their shells.
Twenty shrimps were transferred to each sample vial and artificial seawater was added to make 5 ml. The nauplii can becounted macroscopically in the stem of the pipette against a lighted back ground. A drop of dry yeast suspension (3µg in5ml artificial seawater) was added as food to each vial (Meyer, et al., 1982). Survivors were counted with the aid of a 3 x magnifying glass, after 24 hours, and the percent mortality at each concentration and control was determined. The 24 hour counts were more useful. During control deaths, the data was corrected using Abbot's formula.
as §1

Test [4] has as its system IV instar larvae of Aedes aegypti. As to the kind of experiment: Larvicidal activity against mosquito larvae (WHO procedure, 24 hours exposure). As to conditions: read-out: LC50 ± S.E. How it is done:
To determine the efficacy of different analogues of Alkylxanthates against mosquito larvae, standard procedures as recommended by World Health Organization (1981) were followed with minor modifications. The desired concentration of the test solution was obtained by adding 1 ml of an appropriate stock solution to 249 ml of tap water in 500 ml beaker. Test solutions of different concentrations were prepared by diluting the stock solution in dechlorinated and filtered tap water followed by thorough mixing. Tween -80 [Poly (oxyethylene)n - sorbitan monooleate] was used as an emulsifier at the concentration of 0.002% (v/v) to the final test solution whenever required. Control solutions were prepared in tapwater using acetone or ethanol and Tween -80 (0.002%). To each of the -test concentrations, 25 late third or early fourth instar larvae which were acclimatized earlier were added. At least three replicates of each of the tests were made. Based on the results, five to ten suitable concentrations, which produced 10 to 100% mortality, were selected for detailed study and for calculating LC50 values. Mortality was observed 24 hours after exposing the larvaeto test solutions and the data was corrected for control mortality if any, by using Abbot's formula (Abbot 1925). All tests were carried out at a room temperature maintained at 28 ± 1°C.
as §1

Setting [5] is: IV instar larvae, mortality after 24 hours.

In brackets after ≈: the same amount, converted by molar mass. Like-named read-outs stand apart in the source and are kept apart here.

For `C/C=C(\C)C(=O)O[C@H]1C[C@@H](OC(C)=O)[C@@]2(C(=O)OC)CO[C@H]3[C@@H](O)[C@@](C)([C@]45O[C@@]4(C)[C@H]4C[C@@H]5O[C@@H]5OC=C[C@@]54O)[C@H]4[C@]1(CO[C@]4(O)C(=O)OC)[C@@H]32` [Azadiractin, reference compound], the “A.I (Anti-feedent index)” value was 24.84 in test [1] (5.0 µg/sq.cm.), 48.09 in test [1] (10 µg/sq.cm.), 54.98 in test [1] (15 µg/sq.cm.) and 76.42 in test [1] (20 µg/sq.cm.). Besides, the “Percent leaf consumption 12 hr” value in test [1] (5.0 µg/sq.cm.) is listed as 33.7%; in test [1] (10 µg/sq.cm.) it was 18.6%; in test [1] (15 µg/sq.cm.), 16.4%; in test [1] (20 µg/sq.cm.), 4.2%. Further, the “Percent leaf consumption 24 hr” value came to 57.2% in test [1] (5.0 µg/sq.cm.), 33.3% in test [1] (10 µg/sq.cm.), 27.6% in test [1] (15 µg/sq.cm.) and 12.7% in test [1] (20 µg/sq.cm.). Besides, the “Concentration required for 50% leaf protection EC50 ±S.E” value in test [1] is on record as 6.34±.77 µg/cm^2. Also, the “IGR activity, mode of action” value in test [2] is “less larvicidal activity, minimized in the formation of normal pupae and emergence of normal adults”.

Consider `CC[C@@]1(O)C(=O)OCc2c1cc1n(c2=O)Cc2cc3ccccc3nc2-1` [Chamtothecin, reference compound], for which the LC50 in test [3] (24 h) came to 2.53 ± 0.43 µg/mL (≈ 7.26 µM).

Consider `S=C(OCC1CCCO1)SCSC(=S)OCC1CCCO1` (stereo not shown) [Compound 1, Methylene Bis(tetrahydrofurfurylxanthate)], for which the LC50 in test [4] (iv, 24 h) was 3.77 ± 0.59 µg/mL (≈ 10.2 µM); in test [3] (mortality after 24 hours), 5.63 ± 0.62 µg/mL (≈ 15.3 µM). For the same molecule, the “A.I (Anti-feedent index)” value in test [1] (12.5 µg/sq.cm.) worked out at 8.20; in test [1] (25 µg/sq.cm.) it was 22.42; in test [1] (35 µg/sq.cm.) it was 33.52; in test [1] (50 µg/sq.cm.), 35.23. For the same molecule, the “Percent leaf consumption 12 hr” value in test [1] (12.5 µg/sq.cm.) was determined as 48.6%; in test [1] (25 µg/sq.cm.), 31.5%; in test [1] (35 µg/sq.cm.), 25.9%; in test [1] (50 µg/sq.cm.), 22.1%. Also, the “Percent leaf consumption 24 hr” value in test [1] (12.5 µg/sq.cm.) was found to be 80.6%; in test [1] (25 µg/sq.cm.), 60.2%; in test [1] (35 µg/sq.cm.), 47.3%; in test [1] (50 µg/sq.cm.), 45.5%. Further, the “Concentration required for 50% leaf protection EC50 ±S.E” value in test [1] stood at 37.21±9.67 µg/cm^2.

With `CCCCOC(=S)SCc1cccc(F)c1` [Compound 2, m-Fluorobenzyl (n-butylxanthate)], the LC50 was found to be 12.5 ± 1.24 µg/mL (≈ 48.5 µM) in test [4] (iv, 24 h) and 19 ± 2.83 µg/mL (≈ 73.5 µM) in test [3] (mortality after 24 hours).

Consider `CC(C)COC(=S)SCc1cccc(F)c1` [Compound 3, m-Fluorobenzyl (isobutylxanthate)], for which the LC50 in test [4] (iv, 24 h) came to 11.8 ± 2.35 µg/mL (≈ 45.6 µM); in test [3] (mortality after 24 hours), 22.5 ± 3.26 µg/mL (≈ 87.2 µM). Besides, the “A.I (Anti-feedent index)” value in test [1] (10 µg/sq.cm.) is 11.63; in test [1] (15 µg/sq.cm.) it was 16.07; in test [1] (20 µg/sq.cm.) it was 27.86; in test [1] (25 µg/sq.cm.), 48.67. Further, the “Percent leaf consumption 12 hr” value in test [1] (10 µg/sq.cm.) is 50.4%; in test [1] (15 µg/sq.cm.) it was 33.24%; in test [1] (20 µg/sq.cm.) it was 24.7%; in test [1] (25 µg/sq.cm.) it was 12.5%. The “Percent leaf consumption 24 hr” value is 75.2% in test [1] (10 µg/sq.cm.), 68.7% in test [1] (15 µg/sq.cm.), 53.6% in test [1] (20 µg/sq.cm.) and 32.8% in test [1] (25 µg/sq.cm.). Further, in test [1], the “Concentration required for 50% leaf protection EC50 ±S.E” value worked out at 19.65±2.99 µg/cm^2.

As for `CC(C)COC(=S)SCCSC(=S)OCC(C)C` [Compound 4, Ethylene Bis (isobutylxanthate)], the LC50 in test [4] (setting [5]) came out at 8.06 ± 0.22 µg/mL (≈ 24.7 µM); in test [3] (mortality after 24 hours), 25.8 ± 2.9 µg/mL (≈ 78.9 µM).

`CCCCOC(=S)SCSC(=S)OCCCC` [Compound 5, Methylene Bis (n-butytxanthate)]: the LC50 in test [4] (setting [5]) turned out to be 5.33 ± 0.97 µg/mL (≈ 17.1 µM); in test [3] (mortality after 24 hours) it was 34.6 ± 3.91 µg/mL (≈ 111 µM). Besides, the “A.I (Anti-feedent index)” value was 5.50 in test [1] (10 µg/sq.cm.); 22.27 in test [1] (15 µg/sq.cm.); 35.14 in test [1] (20 µg/sq.cm.); 64.22 in test [1] (25 µg/sq.cm.); 85.37 in test [1] (30 µg/sq.cm.). In addition, the “Percent leaf consumption 12 hr” value is listed as 48.5% in test [1] (10 µg/sq.cm.); 35.2% in test [1] (15 µg/sq.cm.); 22.5% in test [1] (20 µg/sq.cm.); 3.5% in test [1] (25 µg/sq.cm.); -0- % in test [1] (30 µg/sq.cm.). Besides, the “Percent leaf consumption 24 hr” value turned out to be 85.1% in test [1] (10 µg/sq.cm.); 60.4% in test [1] (15 µg/sq.cm.); 45.6% in test [1] (20 µg/sq.cm.); 20.7% in test [1] (25 µg/sq.cm.); 7.5% in test [1] (30 µg/sq.cm.). Moreover, in test [1], the “Concentration required for 50% leaf protection EC50 ±S.E” value stood at 17.11±1.36 µg/cm^2.

Turning to `CCCCOC(=S)SCc1ccc(CSC(=S)OCCCC)cc1` [Compound 12, p-Xylene Bis (n-butylcanthate)], the LC50 was 7.35 ± 0.51 µg/mL (≈ 18.3 µM) in test [4] (setting [5]) and 45.2 ± 5.63 µg/mL (≈ 112 µM) in test [3] (mortality after 24 hours). Also, the “A.I (Anti-feedent index)” value came out at 2.59 in test [1] (10 µg/sq.cm.), 5.97 in test [1] (15 µg/sq.cm.), 24.51 in test [1] (20 µg/sq.cm.) and 58.86 in test [1] (25 µg/sq.cm.). The “Percent leaf consumption 12 hr” value in test [1] (10 µg/sq.cm.) was 57.3%; in test [1] (15 µg/sq.cm.) it was 62.4%; in test [1] (20 µg/sq.cm.), 35.2%; in test [1] (25 µg/sq.cm.), 20.5%. For the same molecule, the “Percent leaf consumption 24 hr” value was 90.2% in test [1] (10 µg/sq.cm.), 84.3% in test [1] (15 µg/sq.cm.), 57.6% in test [1] (20 µg/sq.cm.) and 24.6% in test [1] (25 µg/sq.cm.). Also, in test [1], the “Concentration required for 50% leaf protection EC50 ±S.E” value stood at 20.45±1.76 µg/cm^2.

For orientation: LC50 means the concentration lethal to half of the exposed cells or organisms.
